Reference: patent US11420949B2, “Cystine diamide analogs for the prevention of cystine stone formation in cystinuria” (Rutgers, The State University of New Jersey, priority 2013, dated 2022)

What was measured:
[1] = Fluorescence assay for inhibition of L-cystine crystal formation (aqueous solubility of L-cystine, OPA/NBC); type: physicochemical; settings: for Ratio: improvement in potency over the control CDME; for fold increase in potency/activity as compared to CDME: at increasing the aqueous solubility of L-cystine
Protocol: As used herein, the EC2x's are the concentrations required of the candidate compounds to double the aqueous solubility of cystine and were determined to assess drug potency and potential dosing regimens for in vivo use. One of ordinary skill in the art is readily able to ascertain such information using commonly known methodologies.
Another aspect of the present invention is directed to the processes of determining the concentration of L-cystine using a fluorescence assay after OPA/NBC derivatization. In at least one embodiment with respect to this aspect of the invention, the concentration of the L-cystine was assessed by a fluorescence assay. Accordingly, the inventors developed a fluorescence-based assay using O-phthaldialdehyde (OPA) and N-Boc-cysteine (NBC) to accurately measure the concentration of L-cystine in aqueous solutions using a similar protocol we previously reported. OPA/NBC are popular reagents used for precolumn derivatization of amino acids in HPLC. This derivatization is fast and simple to operate. However, the reaction of OPA with the disulfide cystine and NBC yielded derivatives with weak fluorescence. The disulfide in cystine was reduced and then alkylated with iodoacetic acid to form S-carboxymethylcysteine, which yielded OPA/NBS derivatives with normal fluorescence. L-Cystine solution was thus used to construct a standard curve. L-Cystine first reacted with DTT for 10 min, followed by reaction with iodoacetic acid for 15 min, then reacted with OPA and NBC for 3 min. The final mixture was pipetted into 384-well plate and the fluorescence intensity was read at Ex 340 nm/Em 460 nm. A linear standard curve was obtained in the concentration range between 50 μM and 400 μM (see FIG. 3).
Formation of supersaturation solution—a supersaturated solution was formed by dissolving 21 mg of L-cystine in 30 mL of Millipore water (˜3 mM) under reflux at 100° C. for 20 min until the L-cystine was completely dissolved. The supersaturated solution was then allowed to cool slowly with stirring for 75 min.
Construction of standard curves—L-Cystine (5 mg) was dissolved in Millipore water (34.7 mL) to form a 0.6 mM solution as a stock solution. Then, L-cystine solution was diluted to 0.4, 0.3, 0.2, 0.1, 0.05 mM solution. 10 uL of each L-cystine solutions, 90 uL of 0.1 M dibasic sodium phosphate solution, and 10 uL of DTT solution (12.5 mM) were mixed at r.t. for 10 min, before the addition of 10 uL of iodoacetic acid (100 mM) and continued incubation at r.t. for an additional 15 min. This was then followed by the addition of 10 uL of OPA (100 mM in methanol) and 10 uL of NBC (100 mM in methanol). The derivatization was allowed to proceed for 3 min before 40 uL of the mixture was plated in a 384-well plate and read at Ex 340 nm/Em 460 nm. The standard curve was repeated for each set of experiments and used to calculate the concentration of L-cystine in each sample.
Determination of L-cystine concentration—All test compounds were dissolved in water to form 10 mM stock solution. 5 uL of each solution was added to 500 uL L-cystine supersaturated solution. The mixtures were allowed to stand at 25° C. for 72 h. At the end of incubation, the mixtures were centrifuged at 10,000 rpm for 4 min and the supernatants were diluted 2-fold for concentration measurement. Each diluted mixture (10 uL), 0.1 M dibasic sodium phosphate solution (90 uL), and 10 uL of DTT solution (12.5 mM) were mixed at r.t. for 10 min, before the addition of 10 uL of iodoacetic acid (100 mM) and continued incubation at r.t. for an additional 15 min. Derivatization was performed by the addition of 10 uL of OPA (100 mM in methanol) and 10 uL of NBC (100 mM in methanol) for 3 min. 40 uL of the derivatized mixture was plated in a 384-well plate and fluorescence was read at Ex 340 nm/Em 460 nm to derive the concentrations of the original mixtures. […]

[2] = tested on: Slc3a1 knockout mice; experiment: In vivo activity in a genetic mouse model, four-week oral treatment (bladder stones, urine amino acids)
Protocol: Slc3a1 knockout mice in a mixed 129/C57BL6 background were used in the studies described here. Two-mouth old knockout male mice for LH707 or LH708 treatment were selected. […] Most male mice over age six months have bladder stones and some have kidney stones as well. Female knockout mice have crystalluria but no stones until age over 12 months. Mouse genotypes and gender were determined by PCR amplification of tail DNA. Based on previous observations, Slc3a1 heterozygotes have no apparent phenotype so they were used in place of wild-type mice as needed. Animal studies were conducted in accordance with Rutgers University IACUC policies.
LH707 dihydrochloride (MW 451.43) and LH708 tetrahydrochloride (MW 550.44) were prepared fresh daily (2.9 mM in water) and 200 μl was administered to Slc3a1 knockout male mice (body weight 20 g) by gavage daily for four weeks using a 20G disposable flexible plastic feeding needle with a soft tip (Model FTP-20-30, Instech Laboratories, Inc., Plymouth Meeting, Pa.).
This dose is equivalent to 29 μmol/kg (29 mg/m^2 assuming a body surface area of 0.007 m^2). […]
(§1) Urine samples (0.15 to 1.1 ml) were collected by placing the mice in metabolic cages for four hours or longer and frozen at −20° C. The four-week treatment samples were analyzed for amino acids by ion exchange chromatography on a Biochrom analyzer (Biochrom US, Holliston, Mass.) and the amino acid levels normalized to nmol/mg creatinine. The seven-day treatment samples were analyzed for LH707 and LH708 by LC-MS (see below).
Mice were sacrificed after urine collection and the bladder and kidneys removed and placed in 10% formalin. […] This application was evaluated for the assessment of quantitative parameters such as bladder volume, stone volume, and stone number from the scanned 3D datasets.
After micro CT scanning, bladders were weighed and the stones removed, weighed, counted, and measured in the longest dimension (see FIG. 5). […]

[3] = Compound concentration and volume of mouse urine after 7 daily oral doses (LC-MS/MS); type: in vivo, mice; settings: for oral bioavailability: concluded from urine concentrations after oral dosing
Protocol: This dose is equivalent to 29 μmol/kg (29 mg/m^2 assuming a body surface area of 0.007 m^2). To determine LH707/LH708 absorption and excretion, these compounds were administered daily for seven days and urine samples collected before and immediately after the last treatment.
as §1
It was determined that the concentrations of LH707/LH708 in the mine samples collected using LC-MS/MS in positive MRM mode (LH707, 379.0→188.9; LH708, 203.1→101.3) on a Transcend LX2 system (Thermo Fisher, Waltham, Mass.) coupled to an API 4000 (AB Sciex, Framingham, Mass.). […] The gradient was performed at a flow rate of 750 μL/min as follows: 95% B for 90 s, 95 to 5% B in 42 s, 5% B for 30 s.

[4] = AFM, prior report; cited from earlier work
[5] = tested on: rats; settings: prior report; cited from earlier work
[6] = tested on: cell culture; settings: cell culture experiments, prior report; cited from earlier work
[7] = prior report; cited from earlier work
[8] = concentration required to double the aqueous solubility of cystine, water, 25° C., 72 h
[9] = effective concentration required to double the solubility of L-cystine in water

**Q.** Which EC2x [1, 8] does the source give for `N[C@@H](CSSC[C@H](N)C(=O)N1CCCCC1)C(=O)N1CCCCC1` [LH706, L-Cystine bispiperidine] here?
**A.** 1.59 mM

**Q.** What about the Ratio [1] of the same compound?
**A.** 4.0

**Q.** With `N[C@@H](CSSC[C@H](N)C(=O)NC1CC1)C(=O)NC1CC1` [LH704, L-Cystine bis(cyclopropylamide)] as the compound, how does the EC2x [1, 8] read?
**A.** 3.53 mM

**Q.** What about the Ratio [1] of the same compound?
**A.** 1.8

**Q.** Which “efficacy at inhibiting cystine stone formation” value ([2]; Slc3a1 knockout male mice, gavage daily for four weeks, LH708 versus LH707) does the source give for `CN1CCN(C(=O)[C@@H](N)CSSC[C@H](N)C(=O)N2CCN(C)CC2)CC1` [LH708, L-Cystine bis(N′-methylpiperazide)] here?
**A.** better efficacy

**Q.** What about the “urine concentration of other amino acids (ornithine, lysine, arginine, proline, valine, leucine, phenylalanine)” value ([2]; four-week treatment) of the same compound?
**A.** no significant changes

**Q.** And the “concentration of cystine in mouse urine as compared to before treatment” value ([2]; four-week treatment, paired t-test)?
**A.** significantly increased

**Q.** And the “compound concentration in mouse urine” value ([3]; after 7 daily oral doses)?
**A.** micromolar concentrations

**Q.** And the “compound concentration in urine of Slc3a1 knockout mice versus control or normal mice” value ([3]; after 7 daily oral doses, FIG. 7)?
**A.** significantly higher concentrations

**Q.** What about the oral bioavailability [3] of the same compound?
**A.** readily bioavailable

**Q.** And the “fold increase in potency/activity as compared to CDME” value ([1]; listed as CDNMP)?
**A.** 24 fold

**Q.** And the “fold increase in potency/activity as compared to CDME” value ([1]; listed as VIII)?
**A.** 24.41 fold

**Q.** What about the EC2x [1, 8] of the same compound?
**A.** 0.26 mM

**Q.** And the EC2x [1, 9]?
**A.** 0.00026 mM

**Q.** What about the Ratio [1] of the same compound?
**A.** 24.4

**Q.** What about the “concentrations at which inhibition of cystine crystallization in vitro occurs” value [1] of the same compound?
**A.** submicromolar

**Q.** For `N[C@@H](CSSC[C@H](N)C(=O)NCCO)C(=O)NCCO` [LH709, L-Cystine diethanolamide], which EC2x [1, 8] is on record?
**A.** 2.02 mM

**Q.** What about the Ratio [1] of the same compound?
**A.** 3.2

**Q.** Which “growth velocity of six symmetry-equivalent {100} steps of L-cystine crystals” value [4] does the source give for `COC(=O)[C@@H](N)CSSC[C@H](N)C(=O)O` [CME, L-cystine methylester] here?
**A.** dramatically reduce

**Q.** Which results are given for `N[C@@H](CSSC[C@H](N)C(=O)N1CCOCC1)C(=O)N1CCOCC1` [LH707]?
**A.** compound concentration in mouse urine ([3]; after 7 daily oral doses): micromolar concentrations; oral bioavailability [3]: readily bioavailable; fold increase in potency/activity as compared to CDME ([1]; listed as CDMOR): about 7 fold; fold increase in potency/activity as compared to CDME ([1]; listed as VII): 7.44 fold; EC2x [1, 8]: 0.86 mM; EC2x [1, 9]: 0.00086 mM; Ratio [1]: 7.4; concentrations at which inhibition of cystine crystallization in vitro occurs [1]: submicromolar

**Q.** For `COC(=O)[C@@H](N)CSSC[C@H](N)C(=O)OC` [CDME, L-cystine dimethylester], which “dosage demonstrating adverse effects” value [5] is on record?
**A.** approximately 500 mg/kg per day

**Q.** What about the “concentration causing loss of cell viability” value [6] of the same compound?
**A.** approximately 1 mM

**Q.** What about the “growth velocity of six symmetry-equivalent {100} steps of L-cystine crystals” value [4] of the same compound?
**A.** dramatically reduce

**Q.** What about the “concentration that almost completely inhibits the crystallization of L-cystine in water” value [7] of the same compound?
**A.** above 2 mg/L

**Q.** What about the EC2x [1, 8] of the same compound?
**A.** 6.37 mM

**Q.** What about the EC2x [1, 9] of the same compound?
**A.** 0.00353 mM

**Q.** And the Ratio [1]?
**A.** 1.0
